Structures can show the parent of a compound that is named as a salt.

The subject of data set [1] is NAD+ levels. In words: Tissue NAD+ levels after IP injection in mice. It is filed as in vivo. The conditions noted are these: IP 500 mg/kg, after 1 h. From the text: (§1) Levels of NRH and other NAD-related metabolites in biological samples were obtained by using a cold liquid-liquid extraction using a mixture of methanol:water:chloroform in 5:3:5 (v/v), from which the polar phase was recovered for hydrophilic interaction ultra-high performance liquid chromatography mass spectrometry (UHPLC-MS) analysis. The UHPLC consisted of a binary pump, a cooled autosampler, and a column oven (DIONEX Ultimate 3000 UHPLC+ Focused, Thermo Scientific), connected to a triple quadrupole spectrometer (TSQ Vantage, Thermo Scientific) equipped with a heated electrospray ionisation (H-ESI) source. Of each sample, 2 µL were injected into the analytical column (2.1 mm × 150 mm, 5 µm pore size, 200 Å HILICON iHILIC®-Fusion(P)), guarded by a pre-column (2.1 mm × 20 mm, 200 Å HILICON iHILIC®-Fusion(P) Guard Kit) operating at 35° C. The mobile phase (10 mM ammonium acetate at pH 9, A, and acetonitrile, B) was pumped at 0.25 mL/min flow rate over a linear gradient of decreasing organic solvent (0.5-16 min, 90-25% B), followed by re-equilibration for a total run time of 30 min. The MS operated in positive mode at 3500 V with multiple reaction monitoring (MRM). The software Xcalibur v4.1.31.9 (Thermo Scientific) was used for instrument control, data acquisition and processing. Retention time and mass detection was confirmed by authentic standards.
The above results prompted us to test whether NRH could act as an effective NAD+ precursor in vivo. For this, we first intraperitoneally (IP) injected mice with either NR or NRH (500 mg/kg). […] Importantly, NRH was detectable in circulation after IP injection.

Data set [2] can be described thus: Stability in FBS supplemented media. It is filed as in vitro ADME. On the procedure: (§2) NR degradation to NAM has been proposed as a limitation for its pharmacological efficacy. To evaluate whether NRH was also susceptible to degradation to NAM, we spiked NRH or NR in isolated mouse plasma. […] We also tested the stability of NRH in other matrixes. […] Finally, we also certified NRH stability in water (pH=7, at room temperature) for 48 h.

A short description of data set [3]: Stability of NRH or NR spiked in isolated mouse plasma. It is filed as in vitro ADME. The conditions noted are these: for levels of spiked compound in plasma: isolated mouse plasma, 2 h of incubation.
Description: as §1, §2

The nature of data set [4]: Plasma NRH, NR and NAM after oral administration in mice. It is filed as in vivo.
Description: as §1
Oral administration of NRH led to very similar results to those observed after IP administration. […] NRH was detectable in plasma 1 h after oral administration. In contrast, NR levels were undetectable at 1 h after NR administration.

Data set [5] can be described thus: Circulating NRH, NR and NAM after IP injection in mice. It is filed as in vivo.
Description: as §1, with “standards. […]” for “standards.”

The test system of a further data set is Splenocytes. In words: Intracellular NAD+ in splenocytes. It is filed as cell-based. The conditions noted are these: splenocytes from 1 year old mice, 2 hours. As to the method: Then, 2 hours later, intracellular NAD+ levels were measured. * indicates p<0.05 vs. Control (0 mM) group. […] Then, 2 hours later, intracellular NAD+ levels were measured as described above.

A short description of data set [6]: NRH levels in lung after oral gavage. As to conditions: mice, oral gavage of stable isotope-labelled NRH 250 mg/kg, 2 hours. It is filed as in vivo. On the procedure: 8 week-old C57BI/6NTac mice were orally gavaged with either saline (as vehicle), and an stable isotope-labelled NRH (250 mg/kg). After 2 hours, NRH levels in the lung were evaluated. All results are expressed as mean +/-SE of n=4 mice per group, as areas under the signal by LC-MS analysis, corrected by total protein amount of tissue.
(§3) Levels of NRH and other NAD-related metabolites in biological samples were obtained by using a cold liquid-liquid extraction using a mixture of methanol:water:chloroform in 5:3:5 (v/v), from which the polar phase was recovered for hydrophilic interaction ultra-high performance liquid chromatography mass spectrometry (UHPLC-MS) analysis. The UHPLC consisted of a binary pump, a cooled autosampler, and a column oven (DIONEX Ultimate 3000 UHPLC+ Focused, Thermo Scientific), connected to a triple quadrupole spectrometer (TSQ Vantage, Thermo Scientific) equipped with a heated electrospray ionisation (H-ESI) source. […]
8 week-old C57BI/6NTac mice were orally gavaged with either saline (as vehicle), and an stable isotope-labelled NRH (250 mg/kg). After 2 hours, NRH levels in the lung were evaluated. All results are expressed as mean +/-SE of n=4 mice per group, as areas under the signal by LC-MS analysis, corrected by total protein amount of tissue (FIG. 4).

The subject of another data set is RAW 264.7 macrophages. Put plainly: Intracellular NAD+ in cultured RAW 264.7 macrophages. It is filed as cell-based. As to conditions: 1 hour. On the procedure:
RAW 264.7 macrophages were treated with dihydronicotinamide riboside (NRH) at the concentrations indicated. […] Control (0 mM) group. RAW 264.7 macrophages were treated with dihydronicotinamide riboside (NRH) at the concentrations indicated.

The subject of data set [7] is NAD+ levels. In words: Hepatic NAD+ levels after oral administration in mice. It is filed as in vivo. As to conditions: oral administration (FIG. 2: 500 mg/kg, 1 hour). On the procedure:
8 week-old C57BI/6NTac mice were orally gavaged with either saline (as vehicle), NR (500 mg/kg) or NRH (500 mg/kg). After 1 hour, liver, skeletal muscle and kidney NAD^+ levels were evaluated. All results are expressed as mean +/-SEM of n=5 mice per group. * indicates statistical difference at p<0.05 vs. vs. saline-treated mice. # indicates statistical difference at p<0.05 vs. NR treated mice.
as §3, with “source. Of each sample, 2 µL were injected into the analytical column (2.1 mm × 150 mm, 5 µm pore size, 200 Å HILICON iHILIC®-Fusion(P)), guarded by a pre-column (2.1 mm × 20 mm, 200 Å HILICON iHILIC®-Fusion(P) Guard Kit) operating at 35° C.” for “source.”

The nature of data set [8]: NRH levels in liver, kidney and muscle after oral gavage. It is filed as in vivo. The conditions noted are these: mice, oral gavage 250 mg/kg, 2 hours. On the procedure: 8 week-old C57BI/6NTac mice were orally gavaged with either saline (as vehicle), and NRH (250 mg/kg). After 2 hours, liver, skeletal muscle and kidney NRH levels were evaluated. All results are expressed as mean +/-SEM of n=4 mice per group, as areas under the signal by LC-MS analysis, corrected by total protein amount of tissue.
as §1

The test system of data set [9] is Salmonella enterica serovar Typhimurium. In words: Anti-bacterial response of monocyte-derived macrophages against Salmonella (CFU counts). It is filed as cell-based. The conditions noted are these: 0.01 mM for 42 h prior to infection, MOI 10, 1 h; gentamicin 2 h. As to the method: Monocyte-derived macrophages were treated with 0.01 mM NRH for 42 h prior to infection with Salmonella enterica serovar Typhimurium for 1 h using a multiplicity of infection of 10. Following infection, macrophages were treated with gentamicin for 2 h before cell lysis. Values show absolute colony forming unit (CFU) counts with each dot representing one donor and each line representing paired samples. Graphs show pooled data of 2 independent experiments with 2-3 donors/experiment.
Monocyte-derived macrophages were treated with 0.01 mM NRH for 42 h prior to infection with Salmonella enterica serovar Typhimurium for 1 h using a multiplicity of infection of 10. Following infection, macrophages were treated with gentamicin for 2 h before cell lysis. Values show absolute colony forming unit (CFU) counts with each dot representing one donor and each line representing paired samples. Graphs show pooled data of 2 independent experiments with 2-3 donors/experiment. (FIG. 5).

The test system of data set [10] is Mouse bone marrow derived macrophages. In words: Intracellular NAD+ in cultured bone marrow derived macrophages. It is filed as cell-based. The conditions noted are these: 1 or 2 hours. On the procedure:
Mouse bone marrow derived macrophages were treated with dihydronicotinamide riboside (NRH) at the concentrations indicated, using PBS as control. […] Control group. Mouse bone marrow derived macrophages were treated with dihydronicotinamide riboside (NRH) at the concentrations indicated, using PBS as control.

Another data set in a line: Stability in water. It is filed as physicochemical. The conditions noted are these: pH=7, room temperature, 48 h. As to the method:
as §2

For the compound `NC(=O)c1ccc[n+]([C@@H]2O[C@H](CO)[C@@H](O)[C@H]2O)c1` [NR, 1-b-D-ribofuranosyl-3-pyridinecarboxamide salt, reference compound], in the data set with NAD+ levels [1], the “NAD+ levels in kidney” value is listed as “increased”, the “NAD+ levels in liver” value was “increased” and the “NAD+ levels in muscle” value is “increased”. The “degradation to NAM in FBS supplemented media” value in data set [2] is “occurs”. For the same compound, the “levels of spiked compound in plasma” value in data set [3] is “decayed”. In addition, the “circulating NAM relative to that after NRH treatment” value in data set [4] (C57BL/6NTac, mouse, in vivo, po, 1 h) is given as ~ 4 fold. In addition, the “circulating NAM” value in data set [4] (mouse, in vivo, po) is listed as “large increases”. The “NAM levels in circulation” value in data set [5] (IP 500 mg/kg) is “highly increased”.

Turning to `NC(=O)C1=CN([C@@H]2O[C@H](CO)[C@@H](O)[C@H]2O)C=CC1` [NRH, dihydronicotinamide riboside], the “intracellular NAD+ levels” value in the data set with Splenocytes is listed as “increases NAD+”. Moreover, the NRH in lung result in data set [6] is “efficient biodistribution in the lung”. The “intracellular NAD+ levels” value with RAW 264.7 macrophages was “increases NAD+”. Besides, the “effect on hepatic NAD+ levels” value in the data set with NAD+ levels [7] is listed as “more potent effect on hepatic NAD+ levels than NR”. In the data set with NAD+ levels [1], the “NAD+ levels in kidney” value is listed as “increased”, the “NAD+ levels in liver” value is on record as “increased” and the “NAD+ levels in muscle” value was “increased”. In [8], the NRH in kidney entry is listed as “found intact, in high levels”; the NRH in liver entry is recorded as “found intact, in high levels”; the NRH in muscle entry is “found intact, in high levels”. The “anti-bacterial macrophage response against salmonella” value in data set [9] was “able to augment anti-bacterial macrophage response”. In [10], the “intracellular NAD+ levels” value is reported as “increases NAD+”. Further, the “degradation to NAM in FBS supplemented media” value in data set [2] was “did not degrade to NAM”. For the same compound, in data set [3], the “levels of spiked compound in plasma” value is recorded as “remained stable”. Moreover, the “NR production on incubation in isolated plasma” value in data set [3] (isolated plasma) was “did not lead to NR production”. Moreover, in data set [4] (mice, 1 h after oral administration), the NRH in plasma entry is “detectable”. Further, in data set [4] (mice, after oral gavage), the “NRH concentration in plasma” value amounted to 11.16 ± 1.74 µM. Further, the stability in water result in “Stability in water” is “stability”. Further, in [5] (after IP treatment, compared with NR injection), the NR in circulation entry is given as “much higher levels than those detected after NR injection itself”.

The record behind these values is US20230133114A1, “COMPOSITIONS AND METHODS CONTAINING REDUCED NICOTINAMIDE RIBOSIDE FOR PREVENTION AND TREATMENT OF VIRAL AND BACTERIAL INFECTIONS” (SOCIETE DES PRODUITS NESTLE S.A., priority 2020, published 2023).
